Measurements published in ChEMBL document CHEMBL1140490, “Design and synthesis via click chemistry of 8,9-anhydroerythromycin A 6,9-hemiketal analogues with anti-MRSA and -VRE activity” (2007).
In brackets after ≈: the same amount, converted by molar mass.

Experiments:
[1] = system: Staphylococcus aureus; test: (§1) Antimicrobial activity against Staphylococcus aureus 8325 by serial dilution method; type: functional
[2] = system: Staphylococcus aureus; test: Antimicrobial activity against methicillin-resistant Staphylococcus aureus N315 IR94-HR-1 by serial dilution method; type: functional
[3] = system: Staphylococcus aureus; test: Antimicrobial activity against Staphylococcus aureus ISP217 by serial dilution method; type: functional
[4] = system: Staphylococcus aureus; test: Antimicrobial activity against Staphylococcus aureus ISP447 by serial dilution method; type: functional
[5] = system: Escherichia coli; test: Antimicrobial activity against Escherichia coli NIHJ JC-2 by serial dilution method; type: functional
[6] = system: Staphylococcus aureus; test: Antimicrobial activity against methicillin-resistant Staphylococcus aureus 70 by serial dilution method; type: functional
[7] = system: Staphylococcus aureus; test: Antimicrobial activity against methicillin-resistant Staphylococcus aureus 92-1191 by serial dilution method; type: functional
[8] = system: Enterococcus faecium; test: Antimicrobial activity against vancomycin-resistant Enterococcus faecium NCTC-12203 by serial dilution method
[9] = system: Staphylococcus aureus; test: Antimicrobial activity against Staphylococcus aureus Smith by serial dilution method; type: functional
[10] = system: Staphylococcus aureus; test: Antimicrobial activity against methicillin-resistant Staphylococcus aureus N315 IR94 by serial dilution method; type: functional
[11] = system: Enterococcus faecalis; test: Antimicrobial activity against vancomycin-resistant Enterococcus faecalis NCTC-12201 by serial dilution method; type: functional
[12] = system: Staphylococcus aureus; test: Antimicrobial activity against Staphylococcus aureus FDA209P by serial dilution method; type: functional
[13] = system: Staphylococcus aureus; test: as §1; type: functional; remark: listed apart in the source

Row | SMILES | MIC [1] | MIC [2] | MIC [3] | MIC [4] | MIC [5] | MIC [6] | MIC [7] | MIC [8] | MIC [9] | MIC [10] | MIC [11] | MIC [12] | MIC [13]
1 | CC[C@H]1OC(=O)[C@H](C)[C@@H](OCc2cn(-c3cccnc3)nn2)[C@H](C)[C@@H](O[C@@H]2O[C@H](C)C[C@H](N(C)C)[C@H]2O)[C@@]2(C)CC(C)=C(O2)[C@H](C)[C@@H](OC(=O)C(C)C)[C@]1(C)OC(=O)C(C)C | 128 µg/mL (≈ 150 µM) | 16 µg/mL (≈ 18.7 µM) | 16 µg/mL (≈ 18.7 µM) | 64 µg/mL (≈ 74.8 µM) | > 128 µg/mL | 16 µg/mL (≈ 18.7 µM) | 32 µg/mL (≈ 37.4 µM) | 16 µg/mL (≈ 18.7 µM) | 64 µg/mL (≈ 74.8 µM) | 16 µg/mL (≈ 18.7 µM) | 32 µg/mL (≈ 37.4 µM) | 32 µg/mL (≈ 37.4 µM) | 16 µg/mL (≈ 18.7 µM)
2 | CC[C@H]1OC(=O)[C@H](C)[C@@H](OCc2cn(CC(=O)Nc3ccccn3)nn2)[C@H](C)[C@@H](O[C@@H]2O[C@H](C)C[C@H](N(C)C)[C@H]2O)[C@@]2(C)CC(C)=C(O2)[C@H](C)[C@@H](OC(=O)C(C)C)[C@]1(C)OC(=O)C(C)C | 32 µg/mL (≈ 35 µM) | 16 µg/mL (≈ 17.5 µM) | 16 µg/mL (≈ 17.5 µM) | 32 µg/mL (≈ 35 µM) | > 128 µg/mL | 32 µg/mL (≈ 35 µM) | 32 µg/mL (≈ 35 µM) | 32 µg/mL (≈ 35 µM) | 32 µg/mL (≈ 35 µM) | 16 µg/mL (≈ 17.5 µM) | > 128 µg/mL | 32 µg/mL (≈ 35 µM) | 16 µg/mL (≈ 17.5 µM)
3 | CC[C@H]1OC(=O)[C@H](C)[C@@H](OCc2cn(C34CC5CC(CC(C5)C3)C4)nn2)[C@H](C)[C@@H](O[C@@H]2O[C@H](C)C[C@H](N(C)C)[C@H]2O)[C@@]2(C)CC(C)=C(O2)[C@H](C)[C@@H](OC(=O)C(C)C)[C@]1(C)OC(=O)C(C)C | 16 µg/mL (≈ 17.5 µM) | 8 µg/mL (≈ 8.76 µM) | 8 µg/mL (≈ 8.76 µM) | 16 µg/mL (≈ 17.5 µM) | > 128 µg/mL | 8 µg/mL (≈ 8.76 µM) | 8 µg/mL (≈ 8.76 µM) | 8 µg/mL (≈ 8.76 µM) | 16 µg/mL (≈ 17.5 µM) | 8 µg/mL (≈ 8.76 µM) | 8 µg/mL (≈ 8.76 µM) | 8 µg/mL (≈ 8.76 µM) | 8 µg/mL (≈ 8.76 µM)
4 | CC[C@H]1OC(=O)[C@H](C)[C@@H](OCc2cn(CSc3ccccc3)nn2)[C@H](C)[C@@H](O[C@@H]2O[C@H](C)C[C@H](N(C)C)[C@H]2O)[C@@]2(C)CC(C)=C(O2)[C@H](C)[C@@H](OC(=O)C(C)C)[C@]1(C)OC(=O)C(C)C | 16 µg/mL (≈ 17.8 µM) | 8 µg/mL (≈ 8.88 µM) | 16 µg/mL (≈ 17.8 µM) | 16 µg/mL (≈ 17.8 µM) | > 128 µg/mL | 16 µg/mL (≈ 17.8 µM) | 16 µg/mL (≈ 17.8 µM) | 16 µg/mL (≈ 17.8 µM) | 32 µg/mL (≈ 35.5 µM) | 8 µg/mL (≈ 8.88 µM) | 16 µg/mL (≈ 17.8 µM) | 16 µg/mL (≈ 17.8 µM) | 16 µg/mL (≈ 17.8 µM)
5 | CC[C@H]1OC(=O)[C@H](C)[C@@H](OCc2cn(CC(=O)OCc3ccccc3)nn2)[C@H](C)[C@@H](O[C@@H]2O[C@H](C)C[C@H](N(C)C)[C@H]2O)[C@@]2(C)CC(C)=C(O2)[C@H](C)[C@@H](OC(=O)C(C)C)[C@]1(C)OC(=O)C(C)C | 64 µg/mL (≈ 69 µM) | 16 µg/mL (≈ 17.3 µM) | 16 µg/mL (≈ 17.3 µM) | 64 µg/mL (≈ 69 µM) | > 128 µg/mL | 16 µg/mL (≈ 17.3 µM) | 32 µg/mL (≈ 34.5 µM) | 32 µg/mL (≈ 34.5 µM) | 128 µg/mL (≈ 138 µM) | 16 µg/mL (≈ 17.3 µM) | 32 µg/mL (≈ 34.5 µM) | 32 µg/mL (≈ 34.5 µM) | 16 µg/mL (≈ 17.3 µM)
6 | C#CCO[C@H]1[C@H](C)[C@@H](O[C@@H]2O[C@H](C)C[C@H](N(C)C)[C@H]2O)[C@@]2(C)CC(C)=C(O2)[C@H](C)[C@@H](OC(=O)C(C)C)[C@](C)(OC(=O)C(C)C)[C@@H](CC)OC(=O)[C@@H]1C | 32 µg/mL (≈ 43.5 µM) | 16 µg/mL (≈ 21.7 µM) | 16 µg/mL (≈ 21.7 µM) | 32 µg/mL (≈ 43.5 µM) | > 128 µg/mL | 16 µg/mL (≈ 21.7 µM) | 16 µg/mL (≈ 21.7 µM) | 16 µg/mL (≈ 21.7 µM) | 32 µg/mL (≈ 43.5 µM) | 16 µg/mL (≈ 21.7 µM) | 16 µg/mL (≈ 21.7 µM) | 32 µg/mL (≈ 43.5 µM) | 16 µg/mL (≈ 21.7 µM)
7 | CC[C@H]1OC(=O)[C@H](C)[C@@H](O[C@H]2C[C@@](C)(OC)[C@@H](O)[C@H](C)O2)[C@H](C)[C@@H](O[C@@H]2O[C@H](C)C[C@H](N(C)C)[C@H]2O)[C@@]2(C)CC(C)=C(O2)[C@H](C)[C@@H](OC(=O)C(C)C)[C@]1(C)OC(=O)C(C)C | 32 µg/mL (≈ 37.4 µM) | 16 µg/mL (≈ 18.7 µM) | 16 µg/mL (≈ 18.7 µM) | 32 µg/mL (≈ 37.4 µM) | > 128 µg/mL | 32 µg/mL (≈ 37.4 µM) | 32 µg/mL (≈ 37.4 µM) | 32 µg/mL (≈ 37.4 µM) | 16 µg/mL (≈ 18.7 µM) | 16 µg/mL (≈ 18.7 µM) | 64 µg/mL (≈ 74.8 µM) | 16 µg/mL (≈ 18.7 µM) | 16 µg/mL (≈ 18.7 µM)
